pEC50: −log10 of the molar value. Where two headings read alike, the source gives them in different places.
Key:
[1] = system: liver cancer (3 cell lines); assay: CellTiter-Glo Viability Assay, liver cancer; type: cell-based; details: Homo sapiens, inhibition of cancer cell proliferation
[2] = system: lung cancer (4 cell lines); assay: CellTiter-Glo Viability Assay, lung cancer; type: cell-based; details: Homo sapiens, inhibition of cancer cell proliferation
[3] = system: prostate cancer (5 cell lines); assay: CellTiter-Glo Viability Assay, prostate cancer; type: cell-based; details: Homo sapiens
[4] = system: ovarian cancer (4 cell lines); assay: CellTiter-Glo Viability Assay, ovarian cancer; type: cell-based; details: Homo sapiens, inhibition of cancer cell proliferation
[5] = system: pancreatic cancer (8 cell lines); assay: CellTiter-Glo Viability Assay, pancreatic cancer; type: cell-based; details: Homo sapiens, inhibition of cancer cell proliferation
[6] = system: haematopoietic & lymphoid tumors (13 cell lines); assay: CellTiter-Glo Viability Assay, haematopoietic & lymphoid tumors; type: cell-based; details: Homo sapiens, inhibition of cancer cell proliferation
[7] = system: CAMA1; assay: CellTiter-Glo Viability Assay, breast cancer; type: cell-based; details: Homo sapiens, CAMA-1, 96 h; CAMA1, breast cancer, four days; read-out: EC50
[8] = system: DU4475; assay: CellTiter-Glo Viability Assay, breast cancer; type: cell-based; details: Homo sapiens, DU-4475, 96 h; DU4475, breast cancer, four days; read-out: EC50
[9] = system: T47D; assay: CellTiter-Glo Viability Assay, breast cancer; type: cell-based; details: Homo sapiens, 96 h, breast cancer, four days, read-out: EC50
[10] = system: ZR-75-1; assay: CellTiter-Glo Viability Assay, breast cancer; type: cell-based; details: Homo sapiens, 96 h; ZR-75-1, breast cancer, four days; read-out: EC50
[11] = system: BT-549; assay: CellTiter-Glo Viability Assay, breast cancer; type: cell-based; details: Homo sapiens, 96 h; BT-549, breast cancer, four days; read-out: EC50
[12] = system: MDA-MB-231-Luc; assay: CellTiter-Glo Viability Assay, breast cancer; type: cell-based; details: Homo sapiens, 96 h; MDA-MB-231-Luc, breast cancer, four days; read-out: EC50
[13] = system: HCC1599; assay: CellTiter-Glo Viability Assay, breast cancer; type: cell-based; details: Homo sapiens, 96 h; HCC1599, breast cancer, four days; read-out: EC50
[14] = system: MCF7; assay: CellTiter-Glo Viability Assay, breast cancer; type: cell-based; details: Homo sapiens, 96 h; MCF7, breast cancer, four days; read-out: EC50
[15] = target: CLK3 (Homo sapiens, UniProt P49761); assay: CLK3 kinase activity assay (Z-lyte, Ser/Thr 18 peptide)
CLK3, sequence (P49761 whole entry): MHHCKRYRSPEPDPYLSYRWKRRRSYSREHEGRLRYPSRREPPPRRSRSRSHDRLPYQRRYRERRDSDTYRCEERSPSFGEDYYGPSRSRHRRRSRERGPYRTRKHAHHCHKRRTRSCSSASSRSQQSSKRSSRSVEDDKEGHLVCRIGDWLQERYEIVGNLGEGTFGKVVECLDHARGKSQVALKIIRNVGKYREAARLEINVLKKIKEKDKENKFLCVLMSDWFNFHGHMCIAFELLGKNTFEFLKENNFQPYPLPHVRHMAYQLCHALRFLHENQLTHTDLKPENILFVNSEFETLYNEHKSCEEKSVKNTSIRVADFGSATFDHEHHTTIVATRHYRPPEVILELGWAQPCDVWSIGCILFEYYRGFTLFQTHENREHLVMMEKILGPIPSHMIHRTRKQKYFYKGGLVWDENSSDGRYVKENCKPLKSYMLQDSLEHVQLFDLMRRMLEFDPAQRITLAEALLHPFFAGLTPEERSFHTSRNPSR

[16] = target: T1, CLK2 (Homo sapiens, UniProt P49760); assay: CLK2 kinase activity assay (Z-lyte, Ser/Thr 6 peptide); type: biochemical; details: recombinant CLK2 kinase, ATP 60 μM; read-out: EC50
T1 construct: purchased Thermo Fisher (Life Technologies), Z'-LYTE Kinase Assay Kits
T1 sequence (P49760 whole entry): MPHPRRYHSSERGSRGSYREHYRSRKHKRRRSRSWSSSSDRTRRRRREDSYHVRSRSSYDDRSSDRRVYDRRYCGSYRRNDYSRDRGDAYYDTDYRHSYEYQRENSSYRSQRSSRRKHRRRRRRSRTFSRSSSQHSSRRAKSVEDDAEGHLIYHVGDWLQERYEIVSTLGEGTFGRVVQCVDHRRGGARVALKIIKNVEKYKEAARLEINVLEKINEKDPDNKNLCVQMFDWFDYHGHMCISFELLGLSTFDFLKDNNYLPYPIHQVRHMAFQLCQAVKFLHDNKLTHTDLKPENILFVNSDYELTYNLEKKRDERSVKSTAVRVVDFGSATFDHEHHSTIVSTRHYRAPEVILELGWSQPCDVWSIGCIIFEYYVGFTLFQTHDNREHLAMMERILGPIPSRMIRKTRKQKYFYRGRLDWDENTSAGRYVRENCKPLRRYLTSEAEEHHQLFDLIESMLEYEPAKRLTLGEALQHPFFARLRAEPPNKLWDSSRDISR
Description: All reactions were performed in duplicate.

[17] = system: all 50 cell lines; assay: CellTiter-Glo Viability Assay, average across all cell lines; type: cell-based; details: Homo sapiens; across all 50 cell lines; read-out: average EC50 for inhibition of cancer cell proliferation
Summary of the method: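 Human cancer cell lines from breast, colorectal, haematopoietic/lymphoid, liver, lung, ovarian, pancreatic and prostate tumours were seeded at 300-3,000 cells/well and exposed to compound in duplicate for four days at 37° C, 5% CO2. Viable cells were measured by ATP luminescence; EC50 values came from dose-response curves.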

[18] = system: colorectal cancer (6 cell lines); assay: CellTiter-Glo Viability Assay, colorectal cancer; type: cell-based; details: Homo sapiens, inhibition of cancer cell proliferation

Structure (SMILES): O=C(Nc1c[nH]nc1-c1nc2c(-c3cccc(F)c3)cncc2[nH]1)c1cccnc1 [Compound 91]
- pEC50 ([1]; SNU-398, SNU398 cell line, read-out: Liver cancer, EC50 SNU398): 7.42
- pEC50 ([1]; HEPG2 cell line, read-out: Liver cancer, EC50 HEPG2): 6.43
- pEC50 ([1]; PLC/PRF/5 cell line, read-out: Liver cancer, EC50 PLC/PRF/5): 6.35
- EC50 ([2]; A-427, A427 cell line, read-out: Lung cancer, EC50 (μM) A427): 0.064 µM
- EC50 ([2]; HCC78, HCC-78 cell line, read-out: Lung cancer, EC50 (μM) HCC-78): 0.1 µM
- EC50 ([2]; NCI-H460 cell line, read-out: Lung cancer, EC50 (μM) NCI-H460): 0.476 µM
- EC50 ([2]; NCI-H522 cell line, read-out: Lung cancer, EC50 (μM) NCI-H522): 0.06 µM
- pEC50 ([3]; DU-145, read-out: Prostate cancer EC50 Du-145): 7.04
- pEC50 ([3]; PC-3, PC3 cell line, inhibition of cancer cell proliferation, read-out: Prostate cancer EC50 PC3): 7.51
- pEC50 ([3]; 22Rv1 cell line, inhibition of cancer cell proliferation, read-out: Prostate cancer EC50 22Rv1): 7.68
- pEC50 ([3]; LNCap clone FGC cell line, inhibition of cancer cell proliferation, read-out: Prostate cancer EC50 LNCap clone FGC): 7.30
- pEC50 ([3]; VCaP (Sigma) cell line, inhibition of cancer cell proliferation, read-out: Prostate cancer EC50 VCaP (Sigma)): 8.05
- EC50 ([4]; PA-1, PA1 cell line, read-out: Ovarian cancer, EC50 (μM) PA1): 0.057 µM
- EC50 ([4]; TOV112D, TOV-112D cell line, read-out: Ovarian cancer, EC50 (μM) TOV-112D): 0.102 µM
- EC50 ([4]; OV-90 cell line, read-out: Ovarian cancer, EC50 (μM) OV-90): 0.255 µM
- EC50 ([4]; OVCAR-3 cell line, read-out: Ovarian cancer, EC50 (μM) OVCAR-3): 0.025 µM
- pEC50 ([5]; BXPC-3, BxPC3 cell line, read-out: Pancreatic cancer, EC50 BxPC3): 7.66
- pEC50 ([5]; CAPAN-1, Capan1 cell line, read-out: Pancreatic cancer, EC50 Capan1): 6.99
- pEC50 ([5]; Capan-2, Capan2 cell line, read-out: Pancreatic cancer, EC50 Capan2): 7.13
- pEC50 ([5]; MIA PaCa-2 cell line, read-out: Pancreatic cancer, EC50 MIA PaCa-2): 7.40
- pEC50 ([5]; PANC 05.04 cell line, read-out: Pancreatic cancer, EC50 PANC 05.04): 7.22
- pEC50 ([5]; PANC-1 cell line, read-out: Pancreatic cancer, EC50 PANC-1): 6.38
- pEC50 ([5]; UPAFII cell line, read-out: Pancreatic cancer, EC50 UPAFII): 6.87
- EC50 ([6]; DND41, DND-41 cell line, read-out: Haematopoietic & Lymphoid tumors, EC50 (μM) DND-41): 0.014 µM
- EC50 ([6]; MV4-11, MV-4-11 cell line, read-out: Haematopoietic & Lymphoid tumors, EC50 (μM) MV-4-11): 0.007 µM
- EC50 ([6]; Rec1, REC-1 cell line, read-out: Haematopoietic & Lymphoid tumors, EC50 (μM) REC-1): 0.024 µM
- EC50 ([6]; SU-DHL-4, SUDHL4 cell line, read-out: Haematopoietic & Lymphoid tumors, EC50 (μM) SUDHL4): 0.009 µM
- EC50 ([6]; HL-60 cell line, read-out: Haematopoietic & Lymphoid tumors, EC50 (μM) HL-60): 0.034 µM
- EC50 ([6]; JM1 cell line, read-out: Haematopoietic & Lymphoid tumors, EC50 (μM) JM1): 0.01 µM
- EC50 ([6]; JURKAT, Clone E6-1 cell line, read-out: Haematopoietic & Lymphoid tumors, EC50 (μM) JURKAT, Clone E6-1): 0.031 µM
- EC50 ([6]; JeKo-1 cell line, read-out: Haematopoietic & Lymphoid tumors, EC50 (μM) JeKo-1): 0.008 µM
- EC50 ([6]; KASUMI-1 cell line, read-out: Haematopoietic & Lymphoid tumors, EC50 (μM) KASUMI-1): 0.01 µM
- EC50 ([6]; Loucy cell line, read-out: Haematopoietic & Lymphoid tumors, EC50 (μM) Loucy): 0.013 µM
- EC50 ([6]; MOLT-4 cell line, read-out: Haematopoietic & Lymphoid tumors, EC50 (μM) MOLT-4): 0.045 µM
- EC50 ([6]; TF-1 cell line, read-out: Haematopoietic & Lymphoid tumors, EC50 (μM) TF-1): 0.008 µM
- EC50 ([6]; TOLEDO cell line, read-out: Haematopoietic & Lymphoid tumors, EC50 (μM) TOLEDO): 0.019 µM
- pEC50 [7]: 7.06
- pEC50 [8]: 7.34
- pEC50 [9]: 6.40
- pEC50 [10]: 6.95
- pEC50 [11]: 7.62
- pEC50 [12]: 6.93
- pEC50 [13]: 8.10
- pEC50 [14]: 6.47
- pEC50 [15]: 7.65
- pEC50 [16]: 8.51
- pEC50 [17]: 7.00
- EC50 ([18]; HCT-116, HCT116 cell line, read-out: Colorectal cancer, EC50 (μM) HCT116): 0.05 µM
- EC50 ([18]; HT-29, HT29 cell line, read-out: Colorectal cancer, EC50 (μM) HT29): 0.211 µM
- EC50 ([18]; SW-620, SW620 cell line, read-out: Colorectal cancer, EC50 (μM) SW620): 0.044 µM
- EC50 ([18]; DLD-1 cell line, read-out: Colorectal cancer, EC50 (μM) DLD-1): 0.095 µM
- EC50 ([18]; SW48 cell line, read-out: Colorectal cancer, EC50 (μM) SW48): 0.082 µM
- EC50 ([18]; SW480 cell line, read-out: Colorectal cancer, EC50 (μM) SW480): 0.078 µM
